Experimental data reported in ChEMBL document CHEMBL1127342, “Structure-based design of HIV protease inhibitors: 4-hydroxycoumarins and 4-hydroxy-2-pyrones as non-peptidic inhibitors” (J Med Chem, 1994).

Key:
[1] = Tested for pharmacokinetic parameter to calculate the total body clearance at a dosage of 12 mg/kg in rat; assay type: ADME, organism-based; set-up: dose 12 mg/kg; settings: in vivo, read-out: ClT
[2] = Tested for pharmacokinetic parameter to calculate the half life period at a dosage of 12 mg/kg in rat; assay type: ADME, organism-based; set-up: dose 12 mg/kg; settings: in vivo
[3] = molecular target: Human immunodeficiency virus type 1 protease (Human immunodeficiency virus 1) (UniProt Q72874); assay: Tested for the activity against HIV protease
[4] = molecular target: Cathepsin D (Homo sapiens) (UniProt P07339); assay: Tested for the inhibitory activity against human aspartyl protease, cathepsin D at 10 uM concentration
Cathepsin D (Homo sapiens), sequence (P07339 65-162 limits assumed): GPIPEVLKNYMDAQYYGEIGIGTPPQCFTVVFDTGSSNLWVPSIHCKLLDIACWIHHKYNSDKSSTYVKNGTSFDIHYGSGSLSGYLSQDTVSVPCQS
Cathepsin D (Homo sapiens), sequence (P07339 169-412 limits assumed): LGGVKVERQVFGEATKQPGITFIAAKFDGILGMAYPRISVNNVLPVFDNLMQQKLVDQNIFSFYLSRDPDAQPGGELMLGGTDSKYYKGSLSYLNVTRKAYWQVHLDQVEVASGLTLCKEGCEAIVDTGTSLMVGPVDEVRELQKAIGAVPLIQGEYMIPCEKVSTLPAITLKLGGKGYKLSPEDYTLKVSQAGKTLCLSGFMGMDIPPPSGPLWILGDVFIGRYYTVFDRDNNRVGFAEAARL

[5] = Tested for pharmacokinetic parameter to calculate the half life period at a dosage of 2.5 mg/kg in dog; assay type: ADME, organism-based, Canis lupus familiaris; set-up: dose 2.5 mg/kg; settings: in vivo
Renin (Homo sapiens) = molecular target: T1, Renin (Homo sapiens) (UniProt P00797); assay: Tested for the inhibitory activity against human aspartyl protease, renin at 10 uM concentration
T1 sequence (whole entry): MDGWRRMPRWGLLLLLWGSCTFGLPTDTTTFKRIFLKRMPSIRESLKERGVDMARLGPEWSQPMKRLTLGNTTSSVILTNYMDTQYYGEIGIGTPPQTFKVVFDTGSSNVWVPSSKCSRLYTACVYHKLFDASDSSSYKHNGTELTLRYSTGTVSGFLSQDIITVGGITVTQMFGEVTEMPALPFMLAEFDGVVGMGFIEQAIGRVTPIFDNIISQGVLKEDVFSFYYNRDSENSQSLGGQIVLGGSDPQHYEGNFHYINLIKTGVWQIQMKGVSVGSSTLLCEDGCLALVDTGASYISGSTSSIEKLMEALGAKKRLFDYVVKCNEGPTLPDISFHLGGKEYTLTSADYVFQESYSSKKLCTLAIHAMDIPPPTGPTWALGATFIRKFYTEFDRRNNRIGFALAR

[6] = Oral bioavailability in dog; assay type: ADME, organism-based, Canis lupus familiaris; settings: in vivo
[7] = Tested for antiviral activity against clinical isolates such as AZT resistant strain; assay type: functional; settings: read-out: ED50 (the source's name)
MT4 = assay: Tested for the antiviral activity against HIV-1 IIIB-infected MT-4; assay type: functional; settings: Homo sapiens, read-out: ED50 (the source's name)
[8] = molecular target: Gastricsin (Homo sapiens) (UniProt P20142); assay: Tested for the inhibitory activity against human aspartyl protease gastricsin at 10 uM concentration
Gastricsin (Homo sapiens), sequence (P20142 whole entry, looked up): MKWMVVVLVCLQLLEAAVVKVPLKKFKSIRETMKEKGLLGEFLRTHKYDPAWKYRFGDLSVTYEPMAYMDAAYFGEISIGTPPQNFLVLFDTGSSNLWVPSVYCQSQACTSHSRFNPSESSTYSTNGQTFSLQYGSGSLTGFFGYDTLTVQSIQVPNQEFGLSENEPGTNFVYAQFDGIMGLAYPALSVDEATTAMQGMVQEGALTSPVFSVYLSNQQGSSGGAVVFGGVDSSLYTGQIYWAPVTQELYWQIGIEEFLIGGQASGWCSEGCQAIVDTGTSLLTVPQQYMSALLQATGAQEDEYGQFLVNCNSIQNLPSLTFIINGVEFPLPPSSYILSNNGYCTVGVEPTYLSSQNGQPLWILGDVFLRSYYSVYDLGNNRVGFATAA

Pepsin A (Homo sapiens) = Pepsin A (Homo sapiens) (UniProt P0DJD9); assay: Inhibitory activity against human aspartyl protease, pepsin at 10 uM
Pepsin A (Homo sapiens), sequence (P0DJD9 63-388 limits assumed): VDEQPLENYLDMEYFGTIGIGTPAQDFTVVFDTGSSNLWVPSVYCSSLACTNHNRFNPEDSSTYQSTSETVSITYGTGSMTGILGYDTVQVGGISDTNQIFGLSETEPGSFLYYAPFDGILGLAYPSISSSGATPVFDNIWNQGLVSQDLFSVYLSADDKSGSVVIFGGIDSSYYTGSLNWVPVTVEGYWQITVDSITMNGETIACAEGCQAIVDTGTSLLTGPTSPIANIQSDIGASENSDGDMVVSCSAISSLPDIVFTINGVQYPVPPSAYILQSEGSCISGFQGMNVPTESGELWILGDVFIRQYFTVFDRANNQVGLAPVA

[9] = Oral bioavailability in rat; assay type: ADME, organism-based; settings: in vivo
H9 = assay: Tested for the antiviral activity against HIV-1 IIIB-infected H9 cells; assay type: functional; settings: Homo sapiens, read-out: ED50 (the source's name)
[10] = molecular target: T2, Cathepsin E (Homo sapiens) (UniProt P14091); assay: Tested for the inhibitory activity against human aspartyl protease, cathepsin E at 10 uM concentration
T2 sequence (whole entry): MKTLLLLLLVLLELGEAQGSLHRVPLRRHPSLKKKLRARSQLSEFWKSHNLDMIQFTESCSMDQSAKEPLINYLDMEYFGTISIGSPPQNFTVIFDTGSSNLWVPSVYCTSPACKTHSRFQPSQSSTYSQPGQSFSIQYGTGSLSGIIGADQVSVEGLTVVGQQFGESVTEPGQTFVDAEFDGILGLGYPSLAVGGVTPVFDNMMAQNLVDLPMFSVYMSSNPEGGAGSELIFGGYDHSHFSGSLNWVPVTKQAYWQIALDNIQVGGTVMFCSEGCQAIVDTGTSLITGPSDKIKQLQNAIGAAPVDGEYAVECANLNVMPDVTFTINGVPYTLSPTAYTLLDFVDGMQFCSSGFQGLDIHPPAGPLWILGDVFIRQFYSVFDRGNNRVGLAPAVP

[11] = Tested for pharmacokinetic parameter to calculate the total body clearance at a dosage of 2.5 mg/kg in dog; assay type: ADME, organism-based, Canis lupus familiaris; set-up: dose 2.5 mg/kg; settings: in vivo, read-out: ClT
[12] = Tested for pharmacokinetic parameter to calculate the steady-state volume of distributio at a dosage of 12 mg/kg in rat; assay type: ADME, organism-based; set-up: dose 12 mg/kg; settings: in vivo, read-out: Vss
[13] = molecular target: T3, Human immunodeficiency virus type 1 protease (Human immunodeficiency virus 1, UniProt Q72874); assay: Tested for the binding affinity against HIV-1 Protease
[14] = Tested for pharmacokinetic parameter to calculate the steady-state volume of distributio at a dosage of 2.5 mg/kg in dog; assay type: ADME, organism-based, Canis lupus familiaris; set-up: dose 2.5 mg/kg; settings: in vivo, read-out: Vss
[15] = molecular target: T3, Human immunodeficiency virus type 1 protease; assay: (§1) Tested for the HIV Protease inhibitory activity of the compound
[16] = molecular target: T3, Human immunodeficiency virus type 1 protease; assay: as §1; assay type: functional
[17] = Tested for antiviral activity in HIV-1 infected PBMC; 100-300; assay type: functional; settings: Human immunodeficiency virus 1; read-out: ED50 (the source's name)

CCC(Cc1ccccc1)c1cc(O)c(C(CC)c2ccccc2)c(=O)o1 (configuration not stated)
clearance [1]: 0.8 mL/min/kg | half-life [2]: 4 h | TCID50 [3]: 20 µM | inhibition [4]: 52% | half-life [5]: 6 h | inhibition (Renin (Homo sapiens)): 0% | bioavailability [6]: 45% | EC50 [7]: 4000 nM | EC50 (MT4): 3000 nM | inhibition [8]: 0% | inhibition (Pepsin A (Homo sapiens)): 53% | bioavailability [9]: 76% | EC50 (H9): 3000 nM | inhibition [10]: 72% | clearance [11]: 0.7 mL/min/kg | Vd [12]: 0.1 L/kg | Ki [13]: 38 nM | Vd [14]: 0.26 L/kg

CCC(c1ccccc1)c1c(O)cc(CCc2ccccc2)oc1=O (configuration not stated)
Ki [15]: 500 nM

CC(=O)CC(c1ccccc1)c1c(O)c2ccccc2oc1=O (configuration not stated) [WARFARIN]
IC50 [16]: ~30000 nM

CCC(c1ccccc1)c1c(O)c2ccccc2oc1=O (configuration not stated) [PHENPROCOUMON]
Ki [15]: 1000 nM | EC50 [17]: 300000 nM
